Test results taken from patent publication US9572760B2, “Uses of compounds and mixtures from Antrodia cinnamomea mycelia” (Simpson Biotech Co., Ltd., priority 2013, dated 2017).

Legend:
HSC = HSC apoptosis by cell death detection ELISA; assay type: cell-based; conditions: 24-80 μM; 24 h, 48 h and 72 h
Description: Apoptosis was detected with a sandwich immunoassay system using a cell death detection ELISA kit (Roche Diagnostic Inc.). Roche's Cell Death Detection ELISA kit qualitatively and quantitatively detects the amount of cleaved DNA/histone complexes (nucleosomes) in a given sample using a sandwich-enzyme-immunoassay-based method. The cells (1×10^4 cells/well) were seeded in 100 μl medium in a 96-well plate (Nunc, Denmark) and cultured for 24 h to allow the cells to attach and then treated with three different concentrations (8 μM, 24 μM and 80 μM) of either Compound A, B, C and D for 24 h, 48 h and 72 h and the plates were incubated in 37° C. After incubation, the 96 well plates were centrifuged for 10 min at 200×g and removed supernatant and discard, then added 200 μl of lysis buffer per well using multipipetman and incubated 30 min at room temperature, microplates were centrifuged the lysate at 200×g for 10 min. After the centrifuge, 20 μl of the supernatant was transferred into the streptavidin-coated microplate, then added 80 μl of immunoreagent to each well. The microplate was covered with an adhesive foil and incubated on a shaker under gentle shaking for 2 hour at room temperature. After the incubation period, microplates were washed three times with 250-300 μl incubation buffer and 100 μl ABTS solution was added and incubated for 30 min or until color is sufficient for photometric. ABTS Stop solution was added and absorbance of the samples was measured using ELISA reader at 405 nm, reference wavelength at 490 nm.

tyrosinase = target: T1, tyrosinase (Mus musculus, UniProt P11344); assay: Cellular tyrosinase activity assay (L-DOPA oxidation) in B16F10 cells exposed to UV; assay type: cell-based, murine; conditions: UV alone 52.55±4.36% increase over non-UV control (3.0±0.5 U/mg protein)
T1 construct: endogenous in cells; host or cells: B16F10 murine melanoma cells (ATCC), total cell lysate
T1 sequence (P11344 19-533): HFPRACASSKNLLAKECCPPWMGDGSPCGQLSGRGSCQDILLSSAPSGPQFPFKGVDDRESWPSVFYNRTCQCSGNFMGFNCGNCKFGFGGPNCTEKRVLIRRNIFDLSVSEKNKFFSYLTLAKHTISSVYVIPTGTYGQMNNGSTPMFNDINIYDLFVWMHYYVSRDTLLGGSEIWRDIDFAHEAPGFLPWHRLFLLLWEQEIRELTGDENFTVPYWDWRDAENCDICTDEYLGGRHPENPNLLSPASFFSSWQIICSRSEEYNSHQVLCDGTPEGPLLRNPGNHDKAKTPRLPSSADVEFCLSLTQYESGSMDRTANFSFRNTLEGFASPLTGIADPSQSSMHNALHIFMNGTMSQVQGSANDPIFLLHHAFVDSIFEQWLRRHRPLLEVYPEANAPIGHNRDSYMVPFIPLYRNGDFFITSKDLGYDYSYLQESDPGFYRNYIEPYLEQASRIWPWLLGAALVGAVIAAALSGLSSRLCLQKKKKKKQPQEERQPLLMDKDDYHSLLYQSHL
Text: The dermal fibroblast cell line CG1639 was obtained from the BCRC (Bioresource Collection and Research Center) and cultured in Dulbecco's modified Eagle media (DMEM, Gibco by Invitrogen) with 1% antibiotic antimycotic (Gibco by Invitrogen) and 15% fetal bovine serum (Gibco by Invitrogen). The fetal rat skin keratinocyte, FRSK cell line was obtained from the Japan HSRRB (Health Science Research Resources Bank) and cultured in Eagle's minimal essential media (MEM, Gibco by Invitrogen) supplemented with 10% fetal bovine serum (FBS) (Gibco by Invitrogen) and 1% antibiotic antimycotic (Gibco by Invitrogen). B16F10 cells, a murine melanoma cell line, were purchased from American Type Culture Collection (ATCC, Rockville, Md., USA) and was cultured in Eagle's Minimum Essential Medium (MEM; Sigma, St. Louis, Mo.) supplemented with 10% fetal bovine serum (FBS; HyClone Lab. Inc., Logan, Utah), 0.02% antibiotic-antimycotic liquid (penicillin, 10 000 U mL^−1; streptomycin, 10 000 μg mL^−1 and amphotericin B, 25 μg mL^−1; Invitrogen, Carlsbad, Calif.).
To investigate the induction of melanogenesis and the oxidative stress by direct UV irradiation, melanoma cells and keratocytes were irradiated with 8 J cm^−2 of UVA (FL15BLB, 352 nm, 15 W; Toshiba, Tokyo, Japan) and 10 mJ cm^−2 of UVB (G15T8E, 306 nm, 15 W; Sankyo Denki, Tokyo, Japan) in a HANKS' balanced salt solution (Sigma). The UV intensity was measured by using a Model UVX Digital Radiometer (UVP Inc., Upland, Calif.).
B16F10 and FRSK cells were exposed to Hepasim compounds A-D by two different concentrations (3 or 10 μM) for 72 hrs prior to UVA irradiation. DMEM was replaced with phosphate buffered saline (PBS) to avoid generation of medium-derived toxic photoproducts prior to UV irradiation. Cells were collected 24 hrs after UVA irradiation and assayed. For preparation of cell lysate, the harvested cells were pelleted by centrifugation and lysed in lysis buffer containing 50 mM Tris-HCl, 10 mM ethylene diaminetetraacetic acid (EDTA), 1% (v/v) Tri-ton X-100, phenylmethylsulfonyl fluoride (PMSF) (100 mg/ml) and pepstatin A (1 mg/ml) in DMSO and leupeptin (1 mg/ml) in H2O, pH 6.8. The cells were centrifuged at 10,000 rpm for 10 min and the total cell lysate was collected and stored at −80° C.
The rate of L-DOPA oxidation was measured to assess cellular tyrosinase activity in B16F10 cells exposed to UV. The assay was performed as below described, 20 mM L-DOPA used as the substrates was added to each lysate in a 96-well plate and absorbance of dopachrome formation was measured spectrophotometrically at 475 nm every 10 min for 1 h at 37° C. by a spectrophotometer. The tyrosinase activity was calculated by comparison to a standard curve using tyrosinase (2034 U/mg) and was expressed as unit/mg protein. The data are expressed as a percentage of the tyrosinase activity (unit/mg protein) of non-irradiated and untreated control cells (100%).

collagen I and III = assay: Collagen I and collagen III quantification (ELISA) in rabbit ear scar; assay type: in vivo, New Zealand white rabbits
Description: The rabbit ear model of hypertrophic scarring was established. In brief, 12 New Zealand white rabbits, weighing 2.5 to 3.0 kg, were prepared for wounding under sterile conditions. Four 1 cm full thickness circular wounds were created down to the cartilage on the ventral side of each ear using a 1 cm punch biopsy. The perichondrial membrane was then dissected off the cartilage using a surgical blade. The test agents including compound B, C and ACM ethanol extract were applied to the wounds of the experimental group ([…] to each wound) every day in concentrations of 1% w/v for 14 days, while the control group received equal amounts of 1% w/v saline.
The quantification of collagen I and III used an ELISA Kit (R & D Systems Inc., Minneapolis, Minn., USA) according to the operation manual.

| Structure (SMILES) | apoptosis of HSC (cell death detection assay) (HSC) | tyrosinase activity in UV-irradiated B16F10 cells (tyrosinase; 3 μM) | tyrosinase activity in UV-irradiated B16F10 cells (tyrosinase; 10 μM) | collagen III density (collagen I and III; day 7, 1% w/v topical) | collagen I density (collagen I and III; day 14, 1% w/v topical) | collagen III density (collagen I and III; day 14, 1% w/v topical) |
| --- | --- | --- | --- | --- | --- | --- |
| CC(C)=CCOc1ccc(C2=C(CC(C)C)C(=O)NC2=O)cc1 [Compound B, 3-isobutyl-4-[4-(3-methyl-2-butenyloxy)phenyl]-1H-pyrrol-2,5-dione] | apoptosis of HSC | 51.65±4.6% | 42.32±6.7% | insignificantly decreased | significantly decreased | significantly reduced |
| CC(C)=CCOc1ccc(C2=C(CC(C)C)C(=O)N(O)C2=O)cc1 [Compound C, 3-isobutyl-4-[4-(3-methyl-2-butenyloxy)phenyl]-1H-pyrrol-1-ol-2,5-dione] | apoptosis of HSC | 48.55±3.7% | 40.55±3.9% | insignificantly decreased | significantly decreased | significantly reduced |
